Measurements published in ChEMBL document CHEMBL5055644, “Cysteine derivatives as acetyl lysine mimics to inhibit zinc-dependent histone deacetylases for treating cancer” (Eur J Med Chem, 2021).
Activity calls are given as the source filed them. The calls are words filed in the database; no cut-off is given here.

Legend:
[1] = target: T1, Class 1 histone deacetylase (Homo sapiens) (UniProt Q13547+O15379+Q92769+Q9BY41); assay: Inhibition of class 1 HDAC in human K562 cells assessed as increase in histone H3 acetylation at 10 uM measured after 8 hrs by Western blot analysis; assay type: cell-based
A549 = assay: cells; assay type: functional; settings: Homo sapiens, time 48 hrs
Description: Antiproliferative activity against human A549 cells assessed as inhibition of cell proliferation incubated for 48 hrs by CCK8 assay

Histone deacetylase 5 = Histone deacetylase 5 (Homo sapiens, UniProt Q9UQL6); assay: Inhibition of human HDAC5 using Boc-Lys(acetyl)-AMC as fluorogenic substrate measured after 1 hr by flourescence plate reader method
Histone deacetylase 8 = target: T2, Histone deacetylase 8 (Homo sapiens, UniProt Q9BY41); assay: Inhibition of full length human C-terminal His-tagged HDAC8 expressed in baculovirus infected Sf9 insect cells using Boc-Lys(acetyl)-AMC as fluorogenic substrate measured after 1 hr by flourescence plate reader method
T2 sequence (Q9BY41 whole entry): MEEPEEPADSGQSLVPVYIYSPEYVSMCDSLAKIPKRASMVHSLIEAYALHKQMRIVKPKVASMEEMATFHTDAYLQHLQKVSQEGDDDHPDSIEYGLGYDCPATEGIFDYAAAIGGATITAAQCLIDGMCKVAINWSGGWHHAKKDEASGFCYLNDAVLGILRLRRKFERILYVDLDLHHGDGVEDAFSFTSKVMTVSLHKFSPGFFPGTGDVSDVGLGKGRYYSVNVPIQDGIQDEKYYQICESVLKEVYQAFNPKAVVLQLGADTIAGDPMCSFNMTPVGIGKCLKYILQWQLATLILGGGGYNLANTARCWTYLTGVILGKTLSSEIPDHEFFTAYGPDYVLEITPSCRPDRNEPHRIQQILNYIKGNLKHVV

MCF7 = assay: cells; assay type: functional; settings: Homo sapiens, time 48 hrs
Description: Antiproliferative activity against human MCF-7 cells assessed as inhibition of cell proliferation incubated for 48 hrs by CCK8 assay

Histone deacetylase = assay: Inhibition of HDAC in human HeLa nuclear extract using Boc-Lys(acetyl)-AMC as fluorogenic substrate measured after 1 hr by flourescence plate reader method; assay type: subcellular, Nucleus
Histone deacetylase 4 = Histone deacetylase 4 (Homo sapiens, UniProt P56524); assay: Inhibition of human HDAC4 using Boc-Lys(acetyl)-AMC as fluorogenic substrate measured after 1 hr by flourescence plate reader method
[2] = target: T1, Class 1 histone deacetylase (Homo sapiens); assay: Inhibition of class 1 HDAC in human K562 cells assessed as increase in histone H4 acetylation at 10 uM measured after 8 hrs by Western blot analysis; assay type: cell-based
[3] = target: T3, Protein deacetylase HDAC6 (Homo sapiens, UniProt Q9UBN7); assay: Inhibition of HDAC6 (unknown origin) using Boc-Lys(acetyl)-AMC as fluorogenic substrate measured after 1 hr by flourescence plate reader method
T3 sequence (Q9UBN7 whole entry): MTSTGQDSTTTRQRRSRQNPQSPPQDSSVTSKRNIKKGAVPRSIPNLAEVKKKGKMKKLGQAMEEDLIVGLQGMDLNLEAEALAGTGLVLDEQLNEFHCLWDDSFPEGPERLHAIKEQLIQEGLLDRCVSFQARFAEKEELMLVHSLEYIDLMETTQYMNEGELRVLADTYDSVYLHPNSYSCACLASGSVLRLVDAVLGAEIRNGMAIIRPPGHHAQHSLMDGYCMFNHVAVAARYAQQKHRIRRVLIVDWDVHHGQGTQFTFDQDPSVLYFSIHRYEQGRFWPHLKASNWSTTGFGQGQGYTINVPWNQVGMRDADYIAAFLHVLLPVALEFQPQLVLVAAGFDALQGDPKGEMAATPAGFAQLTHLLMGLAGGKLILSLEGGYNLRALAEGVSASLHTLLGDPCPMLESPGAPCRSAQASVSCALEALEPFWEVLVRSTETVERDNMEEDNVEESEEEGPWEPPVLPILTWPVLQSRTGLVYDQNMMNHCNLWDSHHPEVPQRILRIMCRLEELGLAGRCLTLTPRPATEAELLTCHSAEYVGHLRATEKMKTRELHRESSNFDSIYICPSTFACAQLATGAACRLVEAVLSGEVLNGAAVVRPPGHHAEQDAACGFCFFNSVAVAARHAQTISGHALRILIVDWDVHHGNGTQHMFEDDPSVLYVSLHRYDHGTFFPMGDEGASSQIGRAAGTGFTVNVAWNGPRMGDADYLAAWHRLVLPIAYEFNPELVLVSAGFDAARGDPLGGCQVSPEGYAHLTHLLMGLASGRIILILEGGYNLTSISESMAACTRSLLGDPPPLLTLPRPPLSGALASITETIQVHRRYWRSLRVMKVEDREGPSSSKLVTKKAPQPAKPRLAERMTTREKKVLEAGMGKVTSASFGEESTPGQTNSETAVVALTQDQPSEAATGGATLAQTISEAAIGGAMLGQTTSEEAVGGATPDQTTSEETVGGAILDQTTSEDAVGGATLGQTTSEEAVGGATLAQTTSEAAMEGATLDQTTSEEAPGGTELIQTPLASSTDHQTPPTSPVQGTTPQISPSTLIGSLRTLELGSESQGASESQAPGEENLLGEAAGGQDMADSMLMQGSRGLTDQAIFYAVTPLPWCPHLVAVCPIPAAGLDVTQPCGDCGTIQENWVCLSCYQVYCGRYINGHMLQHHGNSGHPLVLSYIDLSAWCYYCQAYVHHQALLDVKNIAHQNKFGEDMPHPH

[4] = target: T1, Class 1 histone deacetylase (Homo sapiens); assay: Inhibition of class 1 HDAC in human MCF7 cells assessed as increase in histone H3 acetylation at 10 uM measured after 8 hrs by Western blot analysis; assay type: cell-based
[5] = target: Histone deacetylase (Homo sapiens) (UniProt Q13547+O15379+Q9UBN7+Q92769+Q9UQL6+Q8WUI4+Q9BY41+Q96DB2+P56524+Q9UKV0+Q969S8); assay: Inhibition of HDAC in human HeLa nuclear extract at 1 uM using Boc-Lys(acetyl)-AMC as fluorogenic substrate measured after 1 hr by flourescence plate reader method relative to control; assay type: subcellular; settings: Nucleus
[6] = target: Histone deacetylase 3/Nuclear receptor corepressor 2 (HDAC3/NCoR2) (Homo sapiens, UniProt O15379); assay: Inhibition of C-terminal His-tagged recombinant human HDAC3 (1 to 428 residues)/N-terminal GST-tagged recombinant human NCoR2 (395 to 489 residues) co-expressed in baculovirus infected Sf9 cells using Boc-Lys(acetyl)-AMC as fluorogenic substrate measured after 1 hr by flourescence plate reader method
[7] = target: T4, Protein deacetylase HDAC6 (Homo sapiens) (UniProt Q9UBN7); assay: Inhibition of HDAC6 in human MCF7 cells assessed as increase in alpha tubulin acetylation at 10 uM measured after 8 hrs by Western blot analysis; assay type: cell-based
T4 sequence (whole entry): T3 sequence (Q9UBN7 whole entry)

HepG2 = assay: cells; assay type: functional; settings: Homo sapiens, time 48 hrs
Description: Antiproliferative activity against human HepG2 cells assessed as inhibition of cell proliferation incubated for 48 hrs by CCK8 assay

Histone deacetylase 2 = Histone deacetylase 2 (Homo sapiens, UniProt Q92769); assay: Inhibition of full length human HDAC2 using Boc-Lys(acetyl)-AMC as fluorogenic substrate measured after 1 hr by flourescence plate reader method
Histone deacetylase 9 = Histone deacetylase 9 (Homo sapiens, UniProt Q9UKV0); assay: Inhibition of human C-terminal His-tagged HDAC9 (604 to 1066 residues) expressed in baculovirus infected Sf9 insect cells using Boc-Lys(acetyl)-AMC as fluorogenic substrate measured after 1 hr by flourescence plate reader method

Sequence of Histone deacetylase 5 (Q9UQL6 whole entry): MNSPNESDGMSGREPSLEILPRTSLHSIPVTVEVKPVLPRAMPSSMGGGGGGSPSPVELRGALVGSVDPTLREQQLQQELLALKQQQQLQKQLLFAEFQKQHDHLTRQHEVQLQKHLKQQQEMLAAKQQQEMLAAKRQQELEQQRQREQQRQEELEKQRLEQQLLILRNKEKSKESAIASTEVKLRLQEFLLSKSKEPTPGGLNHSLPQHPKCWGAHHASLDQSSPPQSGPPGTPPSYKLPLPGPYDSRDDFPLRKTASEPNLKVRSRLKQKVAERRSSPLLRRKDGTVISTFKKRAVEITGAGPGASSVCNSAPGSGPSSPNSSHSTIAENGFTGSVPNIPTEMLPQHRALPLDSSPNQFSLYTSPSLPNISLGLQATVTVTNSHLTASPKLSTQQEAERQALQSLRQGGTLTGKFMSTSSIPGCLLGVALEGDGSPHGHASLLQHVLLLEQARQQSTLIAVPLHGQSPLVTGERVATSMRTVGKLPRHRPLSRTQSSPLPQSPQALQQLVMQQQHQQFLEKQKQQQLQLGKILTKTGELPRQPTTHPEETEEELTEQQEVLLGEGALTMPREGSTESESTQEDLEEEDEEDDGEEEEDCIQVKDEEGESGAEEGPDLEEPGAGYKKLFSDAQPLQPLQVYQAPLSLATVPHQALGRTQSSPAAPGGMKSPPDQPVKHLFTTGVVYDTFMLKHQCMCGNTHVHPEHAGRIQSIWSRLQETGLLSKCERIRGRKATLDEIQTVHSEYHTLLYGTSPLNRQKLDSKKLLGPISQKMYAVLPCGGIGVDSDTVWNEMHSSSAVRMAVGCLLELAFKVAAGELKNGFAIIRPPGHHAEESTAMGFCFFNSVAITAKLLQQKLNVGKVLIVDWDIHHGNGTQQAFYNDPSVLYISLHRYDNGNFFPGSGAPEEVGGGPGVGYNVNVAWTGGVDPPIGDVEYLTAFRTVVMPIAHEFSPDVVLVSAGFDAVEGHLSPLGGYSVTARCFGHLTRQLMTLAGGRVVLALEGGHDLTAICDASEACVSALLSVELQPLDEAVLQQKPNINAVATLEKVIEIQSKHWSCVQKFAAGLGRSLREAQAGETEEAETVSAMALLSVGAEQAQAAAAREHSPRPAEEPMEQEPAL
Sequence of Histone deacetylase 3/Nuclear receptor corepressor 2 (HDAC3/NCoR2) (O15379 whole entry, the tested form may be a part): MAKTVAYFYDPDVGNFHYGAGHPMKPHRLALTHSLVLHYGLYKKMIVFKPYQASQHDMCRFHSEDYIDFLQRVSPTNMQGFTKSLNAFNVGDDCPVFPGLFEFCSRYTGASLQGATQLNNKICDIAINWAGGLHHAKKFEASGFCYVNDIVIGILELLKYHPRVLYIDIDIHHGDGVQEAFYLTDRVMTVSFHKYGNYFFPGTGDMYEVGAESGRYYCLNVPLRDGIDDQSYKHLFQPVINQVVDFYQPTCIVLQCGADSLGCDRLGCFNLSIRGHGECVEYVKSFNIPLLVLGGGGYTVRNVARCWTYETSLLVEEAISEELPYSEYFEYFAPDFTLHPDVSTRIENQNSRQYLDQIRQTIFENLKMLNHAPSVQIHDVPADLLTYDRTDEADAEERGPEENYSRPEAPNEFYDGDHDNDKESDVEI
Sequence of Histone deacetylase 3/Nuclear receptor corepressor 2 (HDAC3/NCoR2) (Q9Y618 whole entry, further chain, the tested form may be a part): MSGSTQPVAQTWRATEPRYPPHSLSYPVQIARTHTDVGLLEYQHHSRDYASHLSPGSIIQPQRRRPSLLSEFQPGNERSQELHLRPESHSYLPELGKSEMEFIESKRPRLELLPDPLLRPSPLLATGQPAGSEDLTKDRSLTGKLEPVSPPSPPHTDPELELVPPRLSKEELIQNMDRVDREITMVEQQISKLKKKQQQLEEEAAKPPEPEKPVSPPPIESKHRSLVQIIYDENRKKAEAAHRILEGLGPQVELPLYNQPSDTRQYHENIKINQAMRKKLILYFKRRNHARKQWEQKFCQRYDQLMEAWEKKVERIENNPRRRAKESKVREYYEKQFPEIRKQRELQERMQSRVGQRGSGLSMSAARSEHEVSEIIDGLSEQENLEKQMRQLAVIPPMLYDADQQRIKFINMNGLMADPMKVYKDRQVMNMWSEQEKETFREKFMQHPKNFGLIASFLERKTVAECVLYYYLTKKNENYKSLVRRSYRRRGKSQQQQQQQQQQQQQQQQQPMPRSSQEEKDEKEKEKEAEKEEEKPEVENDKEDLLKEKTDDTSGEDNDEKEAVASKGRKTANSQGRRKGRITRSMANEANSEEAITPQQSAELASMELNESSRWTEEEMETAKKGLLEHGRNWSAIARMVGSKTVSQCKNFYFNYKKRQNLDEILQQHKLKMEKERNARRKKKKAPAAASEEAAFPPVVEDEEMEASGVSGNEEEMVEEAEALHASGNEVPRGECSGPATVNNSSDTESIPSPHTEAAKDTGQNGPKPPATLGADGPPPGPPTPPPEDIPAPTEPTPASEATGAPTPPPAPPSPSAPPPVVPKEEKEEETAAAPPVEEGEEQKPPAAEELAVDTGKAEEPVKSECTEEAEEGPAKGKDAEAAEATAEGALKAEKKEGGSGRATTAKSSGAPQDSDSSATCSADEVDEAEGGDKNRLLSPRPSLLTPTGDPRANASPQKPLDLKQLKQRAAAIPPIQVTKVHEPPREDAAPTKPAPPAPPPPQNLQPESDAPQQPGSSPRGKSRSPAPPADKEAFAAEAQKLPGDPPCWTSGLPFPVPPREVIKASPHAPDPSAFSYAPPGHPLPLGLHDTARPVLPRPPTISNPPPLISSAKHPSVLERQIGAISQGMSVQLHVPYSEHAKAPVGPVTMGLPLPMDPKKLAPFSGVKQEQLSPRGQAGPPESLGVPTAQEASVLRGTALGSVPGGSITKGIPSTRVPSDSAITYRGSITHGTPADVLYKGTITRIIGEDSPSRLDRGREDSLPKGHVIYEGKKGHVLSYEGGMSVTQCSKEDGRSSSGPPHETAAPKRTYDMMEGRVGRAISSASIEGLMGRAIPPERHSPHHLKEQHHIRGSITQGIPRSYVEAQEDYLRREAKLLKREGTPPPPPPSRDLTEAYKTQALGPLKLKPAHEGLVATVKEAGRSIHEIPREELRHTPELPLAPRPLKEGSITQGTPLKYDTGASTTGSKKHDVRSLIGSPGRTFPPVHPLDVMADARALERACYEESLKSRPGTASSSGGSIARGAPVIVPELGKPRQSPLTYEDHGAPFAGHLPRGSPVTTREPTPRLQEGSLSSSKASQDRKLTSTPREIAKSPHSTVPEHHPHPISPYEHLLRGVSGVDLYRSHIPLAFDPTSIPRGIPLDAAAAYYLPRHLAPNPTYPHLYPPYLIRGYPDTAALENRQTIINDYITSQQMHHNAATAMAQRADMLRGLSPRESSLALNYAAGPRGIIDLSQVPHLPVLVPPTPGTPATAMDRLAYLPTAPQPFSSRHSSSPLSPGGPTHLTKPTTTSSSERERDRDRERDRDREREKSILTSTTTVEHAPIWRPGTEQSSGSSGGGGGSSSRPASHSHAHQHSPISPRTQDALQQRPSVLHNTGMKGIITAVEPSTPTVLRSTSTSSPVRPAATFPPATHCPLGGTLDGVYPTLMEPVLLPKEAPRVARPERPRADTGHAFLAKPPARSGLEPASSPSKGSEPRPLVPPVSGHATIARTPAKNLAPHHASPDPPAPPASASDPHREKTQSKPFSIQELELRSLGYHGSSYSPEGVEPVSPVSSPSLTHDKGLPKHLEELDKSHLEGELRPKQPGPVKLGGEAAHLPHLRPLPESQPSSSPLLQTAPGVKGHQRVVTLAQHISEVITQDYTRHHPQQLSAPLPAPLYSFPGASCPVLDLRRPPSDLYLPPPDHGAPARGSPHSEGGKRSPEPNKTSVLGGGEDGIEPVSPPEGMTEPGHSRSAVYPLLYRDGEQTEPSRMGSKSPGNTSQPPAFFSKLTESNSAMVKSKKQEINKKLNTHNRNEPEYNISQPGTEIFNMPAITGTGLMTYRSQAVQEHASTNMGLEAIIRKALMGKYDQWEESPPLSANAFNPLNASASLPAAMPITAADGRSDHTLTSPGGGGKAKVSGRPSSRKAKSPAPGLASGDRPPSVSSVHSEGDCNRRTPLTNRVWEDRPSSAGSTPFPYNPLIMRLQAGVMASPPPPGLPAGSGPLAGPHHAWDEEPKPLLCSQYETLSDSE
T1 sequence (O15379 whole entry, looked up, one chain of several): as the sequence (O15379 whole entry, the tested form may be a part) above
T1 sequence (Q13547 whole entry, looked up, one chain of several): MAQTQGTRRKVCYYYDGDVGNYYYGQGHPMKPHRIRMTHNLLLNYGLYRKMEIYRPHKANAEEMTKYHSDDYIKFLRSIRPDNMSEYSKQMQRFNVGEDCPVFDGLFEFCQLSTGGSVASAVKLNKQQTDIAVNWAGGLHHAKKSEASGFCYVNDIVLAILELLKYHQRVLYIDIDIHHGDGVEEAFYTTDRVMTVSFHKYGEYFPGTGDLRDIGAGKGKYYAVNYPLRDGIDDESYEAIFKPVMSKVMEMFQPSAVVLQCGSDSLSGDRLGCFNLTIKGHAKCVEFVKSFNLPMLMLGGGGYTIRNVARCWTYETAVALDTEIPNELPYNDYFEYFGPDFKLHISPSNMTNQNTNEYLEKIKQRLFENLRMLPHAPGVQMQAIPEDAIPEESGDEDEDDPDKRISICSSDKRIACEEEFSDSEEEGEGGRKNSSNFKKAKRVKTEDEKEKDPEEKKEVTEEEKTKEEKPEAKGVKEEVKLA
T1 sequence (Q92769 whole entry, looked up, one chain of several): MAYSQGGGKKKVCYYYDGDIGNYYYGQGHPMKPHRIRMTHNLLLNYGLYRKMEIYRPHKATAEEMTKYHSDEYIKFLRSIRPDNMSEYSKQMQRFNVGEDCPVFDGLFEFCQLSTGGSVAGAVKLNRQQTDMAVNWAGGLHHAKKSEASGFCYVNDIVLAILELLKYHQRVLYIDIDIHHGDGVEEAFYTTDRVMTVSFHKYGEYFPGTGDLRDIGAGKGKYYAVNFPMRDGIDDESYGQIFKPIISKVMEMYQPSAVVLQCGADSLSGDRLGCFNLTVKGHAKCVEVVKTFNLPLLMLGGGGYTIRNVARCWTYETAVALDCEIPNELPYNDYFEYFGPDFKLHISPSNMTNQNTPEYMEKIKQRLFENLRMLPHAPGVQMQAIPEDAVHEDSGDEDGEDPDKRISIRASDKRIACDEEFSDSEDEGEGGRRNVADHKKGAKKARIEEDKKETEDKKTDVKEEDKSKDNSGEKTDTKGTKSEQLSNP
Sequence of Histone deacetylase 2 (Q92769 whole entry, the tested form may be a part): as the sequence (Q92769 whole entry, looked up, one chain of several) above

inhibition [1]	GI50 (A549)	IC50 (Histone deacetylase 5)	IC50 (Histone deacetylase 8)	GI50 (MCF7)	IC50 (Histone deacetylase)	IC50 (Histone deacetylase 4)	inhibition [2]	IC50 [3]	inhibition [4]	inhibition [5]	IC50 [6]	inhibition [7]	GI50 (HepG2)	IC50 (Histone deacetylase 2)	IC50 (Histone deacetylase 9)	Compound
Active	5300 nM	> 200 nM	> 200 nM	4900 nM	72.4 nM	> 200 nM	Active	19.6 nM	Active	83%	69.3 nM	Active	4500 nM	> 200 nM	> 200 nM	O=C(CCCSC[C@H](NC(=O)OCc1ccccc1)C(=O)Nc1cccc2ccccc12)NO
Active	3500 nM	> 200 nM	> 200 nM	4700 nM	75.1 nM	> 200 nM	Active	20.6 nM	Active	84%	108 nM	Active	7300 nM	> 200 nM	> 200 nM	O=C(CCCSC[C@H](NC(=O)OCc1ccccc1)C(=O)Nc1ccccc1)NO

Compound	inhibition [1]	GI50 (A549)	IC50 (Histone deacetylase 5)	IC50 (Histone deacetylase 8)	GI50 (MCF7)	IC50 (Histone deacetylase)	IC50 (Histone deacetylase 4)	inhibition [2]	IC50 [3]	inhibition [4]	inhibition [5]	IC50 [6]	inhibition [7]	GI50 (HepG2)	IC50 (Histone deacetylase 2)	IC50 (Histone deacetylase 9)
O=C(CCCSC[C@H](NC(=O)c1ccccc1)C(=O)Nc1ccccc1)NO	Active	4700 nM	> 200 nM	> 200 nM	3700 nM	52.7 nM	> 200 nM	Active	13.7 nM	Active	80%	126 nM	Active	6200 nM	> 200 nM	> 200 nM
